In patent publication US20240317777A1, “NOVEL MACROCYCLIC AMINOPYRAZOLE COMPOUNDS AS CDK2 INHIBITORS” (Accutar Biotechnology Inc., priority 2023, published 2024) one finds IC50 data, which are given here for 18 compounds.

What all share (assay type): cell-based
In test [1] the test system is CCNE1-amplified OVCAR3 cells. The experiment in a line: Cell growth inhibition of CCNE1-amplified OVCAR3 cells (CellTiter-Glo). Particulars: Homo sapiens, OVCAR-3, 144 h, 6 days. As for the experimental part: Cell Growth Inhibition of CCNE1-Amplified OVCAR3 Cells
(§1) OVCAR3 cells were seeded in 96-well plates at 2000 cells/well in 90 μl of RPM11640 growth medium containing 10% FBS and 1% Penicillin Streptomycin, and then incubated at 37° C. overnight. The following day, the test compound was administered to the cells by using 1000× compound stock solution prepared in DMSO at various concentrations. 1000× compound stock solution was first diluted in culturing medium to 10x, then 10 uL compound medium was added to each well in the cell plates. After administration of the compound, the cells were then incubated at 37° C. for 6 days. Upon completion, the plates were equilibrated at room temperature for approximately 10 minutes. 100 ul of CellTiter-Glo® Reagent (Promega) was added to each well. The plates were then incubated at room temperature for 10 minutes and luminescence was recorded by EnSpire plate reader (PerkinElmer).
For orientation: In ATP-based viability assays light output follows the ATP content of the culture.

For test [2], the system named is CCNE1-normal SKOV3 cells. The experiment in a line: Cell growth inhibition of CCNE1-normal SKOV3 cells (CellTiter-Glo). Particulars: Homo sapiens, SK-OV-3, 144 h, 6 days. The method, then: Cell Growth Inhibition of CCNE1-Normal SKOV3 Cells
as §1, with “SKOV3 cells were obtained from American Type Culture Collection (ATCC, HTB-77). SKOV3” for “OVCAR3”, “1000” for “2000”

Test [3] relates to Phospho-Rb (Ser807/811) in OVCAR3 cells. The experiment in a line: Phospho-Rb expression inhibition in OVCAR3 cells quantified by In Cell Western. As to conditions: Homo sapiens, OVCAR-3, 24 hours, read-out: OVCAR-3 pRb IC50. As for the experimental part: Phospho-Rb Expression Inhibition in OVCAR3 Cells Quantified by in Cell Western
OVCAR3 cells were obtained from American Type Culture Collection (ATCC, HTB-161). OVCAR3 cells were plated in 96-well plates (VWR #10062-900, or Corning #3904) in 90 uL culture medium at a density of 20,000 cells/well in the RPM11640 growth medium containing 10% FBS and 1% Penicillin Streptomycin, and then incubated at 37° C. overnight. The following day, the test compound was administered to the cells by using 1000× compound stock solution prepared in DMSO at various concentrations. 1000× compound stock solution was first diluted in culturing medium to 10x, then 10 uL compound medium was added to each well in the cell plates. After administration of the compound, the cells were then incubated at 37° C. for 24 hours. Upon completion, the cells were washed with PBS briefly. 150 uL/well of 4% formaldehyde was added and the plates were incubated at room temperature for 20 mins. The cells were washed with PBS briefly, and permeabilized with 150 uL/well of ice cold 100% methanol for 10 mins. The cells were washed with PBS briefly and blocked with 100 uL/well LI-COR blocking buffer for 1 hr at room temperature with gentle shaking. The cells were incubated overnight at 4° C. with 50 uL primary antibody rabbit anti-Phospho-Rb (Ser807/811) (1:500, Cell Signaling, #8516) and anti-Rb (1:200, Santa Cruz, sc-73598) diluted in Intercept Blocking Buffer (LI-COR, #927-60001) containing 0.1% Tween 20. The next day, the cells were washed with 200 uL PBS containing 0.1% Tween 20, 5×5 mins at room temperature with gentle shaking, and incubated with 50 uL secondary antibody, IRDye® 800CW Goat anti-Rabbit IgG (1:1000, LI-COR, #926-32211) and IRDye® 680RD Goat anti-Mouse IgG (1:1000, LI-COR, #926-68070), in LI-COR blocking buffer with 0.2% Tween 20 for 1 hr at room temperature with gentle shaking. The cells were washed with 200 uL PBS containing 0.1% Tween 20, 5×5 mins at room temperature with gentle shaking. The cells were washed with PBS for 5 mins. 100 uL fresh PBS was added to each well and the plates were imaged on a LI-COR Odyssey CLX plate reader.

Take `CC1CCCOc2cc(ccn2)Nc2cc([nH]n2)[C@H]2CC[C@H](C2)OC(=O)N1` (mixture of isomers) [Compound 8, (1^1S,1^3R,Z)-9-methyl-2^1H-5,12-dioxa-3,10-diaza-4(4,2)-pyridina-2(3,5)-pyrazola-1(1,3)-cyclopentanacyclododecaphan-11-one]: the half-inhibitory concentration (IC50) (usually the concentration that gives 50% inhibition) was 10 to 50 nM in test [1], more than 1250 nM in test [2] and 2 to 10 nM in test [3].

`O=C1NC2CC(C2)CC(F)(F)c2cc(ccn2)Nc2cc(n[nH]2)[C@H]2CC[C@H](C2)O1` (single isomer, unassigned) [Compound 169, (1^1S,1^3R,7^1R,7^3S,Z)-5,5-difluoro-2^1H-10-oxa-3,8-diaza-4(4,2)-pyridina-2(3,5)-pyrazola-1(1,3)-cyclopentana-7(1,3)-cyclobutanacyclodecaphan-9-one]: the IC50 was 50 to 250 nM in test [1], more than 1250 nM in test [2] and 10 to 50 nM in test [3].

For `O=C1NCCCCOc2cc(ccn2)Nc2cc([nH]n2)[C@H]2CC[C@H](C2)O1` [Compound 1, (1^1S,1^3R,Z)-2^1H-5,12-dioxa-3,10-diaza-4(4,2)-pyridina-2(3,5)-pyrazola-1(1,3)-cyclopentanacyclododecaphan-11-one], the IC50 in test [1] was 10 to 50 nM; in test [2] it was more than 1250 nM; in test [3] it was 10 to 50 nM.

`O=C1NCCCCCOc2cc(ccn2)Nc2cc([nH]n2)[C@H]2CC[C@H](C2)O1` [Compound 3, (1^1S,1^3R,Z)-2^1H-5,13-dioxa-3,11-diaza-4(4,2)-pyridina-2(3,5)-pyrazola-1(1,3)-cyclopentanacyclotridecaphan-12-one]: the IC50 in test [1] is 50 to 250 nM; in test [2], more than 1250 nM; in test [3], 10 to 50 nM.

On to `O=C1NC23CC(COc4cc(ccn4)Nc4cc([nH]n4)[C@H]4CC[C@H](C4)O1)(C2)C3` [Compound 18, (1^1S,1^3R,Z)-2^1H-5,10-dioxa-3,8-diaza-4(4,2)-pyridina-2(3,5)-pyrazola-7(1,3)-bicyclo[1.1.1]pentana-1(1,3)-cyclopentanacyclodecaphan-9-one], for which the IC50 in test [1] was 50 to 250 nM; in test [2], more than 1250 nM; in test [3], 50 to 250 nM.

As to `O=C1NC23CC(CCOc4cc(ccn4)Nc4cc([nH]n4)[C@H]4CC[C@H](C4)O1)(C2)C3` [Compound 22, (1^1S,1^3R,Z)-2^1H-5,11-dioxa-3,9-diaza-4(4,2)-pyridina-2(3,5)-pyrazola-8(1,3)-bicyclo[1.1.1]pentana-1(1,3)-cyclopentanacycloundecaphan-10-one], the results for the half-maximal inhibitory concentration (IC50) in test [1], in test [2] and in test [3] were not above 2 nM, 10 to 50 nM and not above 2 nM, respectively.

Regarding `C[C@H]1CCCOc2cc(ccn2)Nc2[nH]nc(c2Cl)[C@H]2CC[C@H](C2)OC(=O)N1` [Compound 184, (1^1S,1^3R,9S,E)-2^4-chloro-9-methyl-2^1H-5,12-dioxa-3,10-diaza-4(4,2)-pyridina-2(3,5)-pyrazola-1(1,3)-cyclopentanacyclododecaphan-11-one], the IC50 in test [1] and in test [3] was more than 250 nM throughout.

For `[2H]C1([2H])Oc2cc(ccn2)Nc2[nH]nc(c2Cl)[C@H]2CC[C@H](C2)OC(=O)NC2CC1C2` [Compound 222, (1^1S,1^3R,7^1R,7^3S,E)-24-chloro-2^1H-5,10-dioxa-3,8-diaza-4(4,2)-pyridina-2(3,5)-pyrazola-1(1,3)-cyclopentana-7(1,3)-cyclobutanacyclodecaphan-9-one-6,6-d2], the IC50 is more than 250 nM in test [1] and 50 to 250 nM in test [3].

Regarding `C[C@H]1CCCOc2cncc(n2)Nc2cc(n[nH]2)[C@H]2CC[C@H](C2)OC(=O)N1` [Compound 233, (1^1S,1^3R,9S,Z)-9-methyl-2^1H-5,12-dioxa-3,10-diaza-4(2,6)-pyrazina-2(3,5)-pyrazola-1(1,3)-cyclopentanacyclododecaphan-11-one], the IC50 in test [1] and in test [3] was not above 2 nM in each case.

With `C[C@H]1CCCOc2cncc(n2)Nc2[nH]nc(c2F)[C@H]2CC[C@H](C2)OC(=O)N1` [Compound 234, (1^1S,1^3R,9S,E)-2^4-fluoro-9-methyl-2^1H-5,12-dioxa-3,10-diaza-4(2,6)-pyrazina-2(3,5)-pyrazola-1(1,3)-cyclopentanacyclododecaphan-11-one], the values for the IC50 in test [1] and in test [3] were 10 to 50 nM and 2 to 10 nM, respectively.

As for `O=C1NC2CC(COc3cncc(n3)Nc3cc(n[nH]3)[C@H]3CC[C@H](C3)O1)C2` [Compound 235, (1^1S,1^3R,7^1R,7^3S,Z)-2^1H-5,10-dioxa-3,8-diaza-4(2,6)-pyrazina-2(3,5)-pyrazola-1(1,3)-cyclopentana-7(1,3)-cyclobutanacyclodecaphan-9-one], the IC50 in test [1] and in test [3] was not above 2 nM each time.

In the case of `O=C1NC2CC(COc3cncc(n3)Nc3[nH]nc(c3F)[C@H]3CC[C@H](C3)O1)C2` [Compound 236, (1^1S,1^3R,7^1R,7^3S,E)-2^4-fluoro-2^1H-5,10-dioxa-3,8-diaza-4(2,6)-pyrazina-2(3,5)-pyrazola-1(1,3)-cyclopentana-7(1,3)-cyclobutanacyclodecaphan-9-one], the values for the IC50 in test [1] and in test [3] were 10 to 50 nM and 2 to 10 nM, respectively.

Turning to `C[C@H]1CCCOc2cc(ccn2)Nc2[nH]nc(c2F)C2C[C@@H](F)[C@H](C2)OC(=O)N1` [Compound 237, (1^1R,1^3S,1^4R,9S,E)-1^4,2^4-difluoro-9-methyl-2^1H-5,12-dioxa-3,10-diaza-4(4,2)-pyridina-2(3,5)-pyrazola-1(1,3)-cyclopentanacyclododecaphan-11-one], the figures for the IC50 in test [1] and in test [3] were 50 to 250 nM and 10 to 50 nM, respectively.

As for `C[C@H]1CCCOc2cc(ccn2)Nc2[nH]nc(c2F)C2C[C@H](F)[C@@H](C2)OC(=O)N1` [Compound 238, (1^1S,1^3R,1^4S,9S,E)-1^4,2^4-difluoro-9-methyl-2^1H-5,12-dioxa-3,10-diaza-4(4,2)-pyridina-2(3,5)-pyrazola-1(1,3)-cyclopentanacyclododecaphan-11-one], the IC50 lay within 50 to 250 nM in test [1] and 10 to 50 nM in test [3].

As for `C[C@H]1CCCOc2nccc(n2)Nc2cc(n[nH]2)[C@H]2CC[C@H](C2)OC(=O)N1` [Compound 241, (1^1S,1^3R,9S,Z)-9-methyl-2^1H-5,12-dioxa-3,10-diaza-4(4,2)-pyrimidina-2(3,5)-pyrazola-1(1,3)-cyclopentanacyclododecaphan-11-one], the IC50 in test [1] and in test [3] was not above 2 nM each time.

For the compound `C[C@H]1CCCOc2nccc(n2)Nc2[nH]nc(c2F)[C@H]2CC[C@H](C2)OC(=O)N1` [Compound 256, (1^1S,1^3R,9S,E)-2^4-fluoro-9-methyl-2^1H-5,12-dioxa-3,10-diaza-4(4,2)-pyrimidina-2(3,5)-pyrazola-1(1,3)-cyclopentanacyclododecaphan-11-one], the values for the IC50 in test [1] and in test [3] were 10 to 50 nM and 2 to 10 nM, respectively.

Turning to `C[C@@H]1CC23CC(C2)(C3)NC(=O)O[C@@H]2CC[C@@H](C2)c2cc(n[nH]2)Nc2cc(nc(C(F)F)c2)O1` [compound 24], the IC50 in test [1] and in test [3] was more than 250 nM each time.

With `C[C@H]1CC23CC(C2)(C3)NC(=O)O[C@@H]2CC[C@@H](C2)c2cc(n[nH]2)Nc2cc(nc(C(F)F)c2)O1` [compound 25], the IC50 in test [1] and in test [3] was more than 250 nM throughout.
